This is an account of results in patent US7087766B2, “Reagents for the quantitation of active oxygen” (Daiichi Pure Chemicals Co., Ltd., priority 2000, dated 2006).

“Also recorded” adds a separate entry of the source.

Data set [1] is described as follows: Reactivity with nitrogen monoxide (NOC13), fluorescence intensity. The settings on record: 10 μM probe, 100 mM sodium phosphate buffer pH 7.4; NOC13 (100 μM); 30 minutes. How it is done: (§1) The excitation spectrum and the fluorescence spectrum of the 10 μM ss-3F solution were measured using a fluorophotometer F4500 (manufactured by Hitachi, Ltd.). Slit width was 2.5 nm for both the excitation spectrum and the fluorescence spectrum, and the photomultiplier voltage was 950 V. Measurement was carried out at the excitation wavelength of 490 nm and the fluorescence wavelength of 510 nm unless otherwise specified.
(§2) The compounds of the present invention, ss-1F, and ss-3F were tested. DCFH (2′,7′-dichlorodihydrofluorescein) was used as a control which was produced by hydrolyzing DCFH-DA (2′,7′-dichlorodihydrofluorescein diacetate; Molecular Probes, D-399) as a commercially available agent for detecting reactive oxygen species. DCFH-DA was hydrolyzed in accordance with the method by Hempel et al. (Stephen L. Hempel et al., Free Radical Biology & Medicine, 27, 146–159, 1999) under an alkali condition to obtain DCFH. […] The 10 μM DCFH solution was used for the test immediately after the preparation. […] Each of ss-1F, ss-3F, and DCFH was treated under conditions “a” to “f” for 30 minutes (2 hours and 30 minutes only for “f”) and changes in fluorescence intensity between before and after treatment were measured. The fluorescence intensity was measured under the same conditions as those in Example 4.

Data set [2] can be described thus: Reactivity with hydrogen peroxide, fluorescence intensity. The settings on record: for changes in fluorescence intensity between before and after treatment, Hydrogen peroxide: 10 μM probe, 100 mM sodium phosphate buffer pH 7.4, Hydrogen peroxide (1 mM), 30 minutes; for reaction with hydrogen peroxide per se (in words): result of Example 6. How it is done:
as §1, §2

Data set [3] can be described thus: Reactivity with hydroxyl radical (Fenton system: hydrogen peroxide and ferrous perchlorate), fluorescence intensity. The settings on record: for changes in fluorescence intensity between before and after treatment, Hydroxyl radical: 10 μM probe, 100 mM sodium phosphate buffer pH 7.4, Iron(II) perchlorate (100 μM) and hydrogen peroxide (1 mM), 30 minutes, ex 490 nm/em 510 nm; for reactivity to hydroxyl radical (in words): condition a of Table 1. How it is done: as §1
Further, to investigate the reaction between ss-3F and hydroxyl radical, hydrogen peroxide was added to the 10 μM ss-3F solution to a final concentration of 1 mM, and then the mixture was added with ferrous perchlorate to a final concentration of 100 μM for each addition (5 times in total) to measure changes in fluorescence intensity with time (Fenton system).
(§3) The solutions described below were analyzed by HPLC. The absorbance at 460 nm was measured using XTerra™RP18 5 μm (4.6×250 mm) as a column and an aqueous solution of acetonitrile/0.1M NaHCO3=1/1 as an eluate with an elution rate of 1 ml/min. • (A) the 10 μM ss-3F solution • (B) a reaction solution prepared by adding EP-1 to the 10 μM ss-3F solution so as to give a final concentration of 5 mM and reacting at 37° C. for 8 hours • (C) a solution prepared by adding hydrogen peroxide to the 10 μM ss-3F solution so as to give a final concentration of 1 mM, and further adding ferrous perchlorate so as to give a final concentration of 500 μM, and then allowing to stand at room temperature for about 3 hours • (D) a 1 μM fluorescein solution
as §2

A short description of data set [4]: Reactivity with singlet oxygen (EP-1 naphthalene endoperoxide system), fluorescence intensity. To be noted: for changes in fluorescence intensity between before and after treatment, Singlet oxygen: 10 μM probe, 100 mM sodium phosphate buffer pH 7.4, EP-1 (100 μM), 30 minutes. The protocol:
as §1
Subsequently, in order to investigate the reaction between ss-3F and singlet oxygen, a solution of EP-1 (a singlet oxygen generation system, i.e., the naphthalene endoperoxide compound; Saito, I, .et al., J. Am. Chem. Soc., 107, pp. 6329–6334, 1985) in dimethylformamide (DMF) was added to the 10 μM ss-3F solution to final concentrations of 1 mM, 2 mM, and 5 mM, and changes in fluorescence intensity with time was measured (EP-1 system). The temperature of the solution at this time was at 37° C. The excitation spectrum and the fluorescence spectrum of the solution after the completion of the reaction were measured under the same conditions as described above. […] Also in FIG. 3, generation of fluorescence was observed, and it was verified that ss-3F generated fluorescence upon reaction with singlet oxygen.
as §3
(§4) A fluorescence spectrum of ss-3 obtained in Example 1 was measured under the same conditions as those in 1) of Example 4, except that the excitation wavelength was at 370 nm and the fluorescence wavelength was at 450 nm. The result obtained in the absence of EP-1 was shown in FIG. 7, and the result of fluorescence spectrum of the solution after the completion of the reaction with EP-1 was shown in FIG. 8.
as §2

Data set [5] can be described thus: Autoxidation under a fluorescent lamp, fluorescence intensity. To be noted: for changes in fluorescence intensity between before and after treatment, Autoxidation: 10 μM probe, 100 mM sodium phosphate buffer pH 7.4, just under a fluorescent lamp for 2 hours and 30 minutes; for autoxidation (in words): condition f of Table 1. The format is physicochemical. The protocol:
as §1, §2

Data set [6] in a line: Reactivity with superoxide (KO2), fluorescence intensity. The settings on record: 10 μM probe, 100 mM sodium phosphate buffer pH 7.4; KO2 (100 μM); 30 minutes. The protocol: as §1, §2
In the next data set the test system is horseradish peroxidase. The data set can be described thus: Specific detection of peroxidase activity (HRP/H2O2), fluorescence spectrum. The format is biochemical. To be noted: 10 μM probe, horseradish peroxidase 0.2 μM, hydrogen peroxide 0 to 5.0 μM, pH 7.4; fluorescence wavelength 515 nm. The protocol: A 100 mM phosphate buffer (pH 7.4) of horseradish peroxidase was added to the resulting solution of ss-1F or ss-3F to a final concentration of 0.2 μM, and then hydrogen peroxide was added to final concentrations of 0, 0.01, 0.05, 0.1, 0.5, 1.0, 2.0, and 5.0 μM, and the fluorescence spectrum was immediately measured. The fluorescence spectrum was measured under the same conditions as those in 1) of Example 4, except that the fluorescence wavelength was at 515 nm.

Data set [7] is described as follows: Excitation and fluorescence spectrum of the compound itself. The format is physicochemical. The protocol: as §1, §4

With `O=C(O)c1ccccc1C1c2cc(Cl)c(O)cc2Oc2cc(O)c(Cl)cc21` [DCFH, 2′,7′-dichlorodihydrofluorescein, reference compound], the “changes in fluorescence intensity between before and after treatment, Nitrogen monoxide” value (from here on “changes … Nitrogen monoxide”) in data set [1] was 1.5 × 10^2. Besides, the “changes in fluorescence intensity between before and after treatment, Hydrogen peroxide” value (“changes … Hydrogen peroxide” below) in data set [2] is listed as 1.9 × 10^2. In addition, in data set [3], the “changes in fluorescence intensity between before and after treatment, Hydroxyl radical” value (shortened to “changes … after treatment, Hydroxyl radical”) was 4.8 × 10^3; the “reactivity to hydroxyl radical (in words)” value (shortened to “reactivity”) is recorded as “successfully reacted with hydroxyl radical”. The “changes in fluorescence intensity between before and after treatment, Singlet oxygen” value (from here on “changes … after treatment, Singlet oxygen”) in data set [4] came to 26. Also, in data set [5], the “changes in fluorescence intensity between before and after treatment, Autoxidation” value (“changes … Autoxidation” below) is given as 1.6 × 10^3; the “autoxidation (in words)” value is recorded as “high”. Further, the “changes in fluorescence intensity between before and after treatment, Superoxide” value (from here on “changes … Superoxide”) in data set [6] is 67.
Take `O=C(O)c1ccccc1-c1c2ccc(=O)cc-2oc2cc(Oc3ccc(O)cc3)ccc12` [ss-1F]: the “changes … Nitrogen monoxide” value in data set [1] is on record as 6.0. Moreover, in data set [2], the “changes … Hydrogen peroxide” value turned out to be 1.8; the “reaction with hydrogen peroxide per se (in words)” value is on record as “do not react with hydrogen peroxide”. Besides, in data set [3], the “changes … after treatment, Hydroxyl radical” value is 3.3 × 10^2; the “reactivity” value is “high reactivity to hydroxyl radical”. The “changes … after treatment, Singlet oxygen” value in data set [4] was determined as 4.8. Moreover, in data set [5], the “changes … Autoxidation” value was <1.0; the “autoxidation (in words)” value is on record as “completely free from autoxidation; also recorded: no autoxidation”. For the same compound, in the data set on horseradish peroxidase, the “fluorescence intensity with HRP/H2O2” value is “increase in fluorescence intensity in a concentration-dependent manner”. Besides, the “changes … Superoxide” value in data set [6] stood at 8.3.
Regarding `Nc1ccc(Oc2ccc3c(-c4ccccc4C(=O)O)c4ccc(=O)cc-4oc3c2)cc1` [ss-3F], in data set [1], the “changes … Nitrogen monoxide” value is recorded as <1.0. Besides, in data set [2], the “changes … Hydrogen peroxide” value is <1.0; the “reaction with hydrogen peroxide per se (in words)” value is on record as “do not react with hydrogen peroxide”. Also, in data set [3], the “changes … after treatment, Hydroxyl radical” value is given as 6.0 × 10^2; the “reactivity” value was “high reactivity to hydroxyl radical”. Also, the “changes in fluorescence intensity with time on reaction with hydroxyl radical” value in data set [3] (10 μM solution, hydrogen peroxide 1 mM, ferrous perchlorate 100 μM per addition (5 times)) is listed as “increase in fluorescence intensity was observed at each time of the addition of ferrous perchlorate”. Also, the “fluorescence of the compound per se” value in data set [7] (10 μM in 100 mM sodium phosphate buffer pH 7.4, excitation 490 nm, fluorescence 510 nm) was “emits no fluorescence”. In addition, the “changes … after treatment, Singlet oxygen” value in data set [4] was 8.7. Also, in data set [4] (10 μM solution, EP-1 1 mM, 2 mM, 5 mM, 37° C., ex 490 nm/em 510 nm), the “changes in fluorescence intensity with time on reaction with singlet oxygen” value is “increase in fluorescence intensity was observed dependently on EP-1 concentrations as well as in time dependent manner”. Moreover, in data set [5], the “changes … Autoxidation” value is given as <1.0; the “autoxidation (in words)” value is recorded as “completely free from autoxidation; also recorded: no autoxidation”. Further, the “fluorescence intensity with HRP/H2O2” value in the data set on horseradish peroxidase is “increase in fluorescence intensity in a concentration-dependent manner”. For the same compound, the “changes … Superoxide” value in data set [6] worked out at 5.6.
As to `Nc1ccc(Oc2ccc3ccc(=O)oc3c2)cc1` [ss-3], the “fluorescence of the compound itself” value in data set [7] (absence of EP-1, excitation 370 nm, fluorescence 450 nm) is reported as “substantially non-fluorescent”. The “fluorescence after reaction with singlet oxygen” value in data set [4] (after completion of the reaction with EP-1, excitation 370 nm, fluorescence 450 nm) is “emits fluorescence upon reaction with singlet oxygen”.
